# Laboratory results from patent US11596696B2, “Combination therapy with an anti-CD25 antibody-drug conjugate” (ADC Therapeutics SA, priority 2017, dated 2023).
# How the values were obtained:
# [1] = tested on: surface CD25 on Karpas299 cell line; assay: Surface CD25 by flow cytometry after decitabine (Example 6); format: cell-based; design: dose or concentration left out as unconfirmed; conditions: in the presence of decitabine
# Protocol: After incubation, two parameters were measured: the amount of surface CD25 (as determined by flow cytometry) and the in vitro cytotoxicity of the combinations (as determined by MTS assays).
# [2] = tested on: surface CD25 on KG-1 cells; assay: Surface CD25 by flow cytometry (FACS) after Cytarabine (Example 5); format: cell-based; conditions: CD25(+) KG-1 cells (low CD25) incubated with Cytarabine
# Protocol: (§1) After incubation, two parameters were measured: the amount of surface CD25 (as determined by flow cytometry) and the in vitro cytotoxicity of the combinations (as determined by CellTiter-Glo® or MTS assays). Cytotoxic synergy was calculated by transforming the cell viability data into fraction affected, and calculating the combination index (Table 1) using the CalcuSyn analysis program.
# [3] = tested on: surface CD25 on Karpas299 cell line; assay: as above; format: cell-based; conditions: Karpas299 cell line (high in CD25) incubated with Cytarabine
# Protocol: as §1
# [4] = tested on: IL2Ralpha (CD25) mRNA in Karpas-299 cells; assay: CD25 mRNA expression by TaqMan qRT-PCR (Example 9); format: cell-based; conditions: Karpas299 cells; 30 nM Cytarabine; over the 72 hour period
# Protocol: (§2) Karpas-299, EOL-1 or KG-1 cells were incubated with 30 nM Cytarabine for 24 hours before mRNA was isolated and reverse-transcribed. cDNA was probed for IL2Ralpha (CD25) by TagMan qRT-PCR. Mean fold change in expression compared to the untreated control was calculated using the ddCT method using the reference gene abl-1. A time-course to measure expression change over 3-4 days was also done in Karpas-299 (high CD25 expressing) and KG-1 cells (low CD25 expressing) under the same conditions, only extending incubation time with Cytarabine.
# [5] = tested on: IL2Ralpha (CD25) mRNA in KG-1 cells; assay: CD25 mRNA expression by TaqMan qRT-PCR (Example 9); format: cell-based; conditions: 30 nM Cytarabine
# Protocol: as §2
# [6] = tested on: CD25 surface protein on Karpas-299 cells; assay: CD25 surface protein, antibodies bound per cell, QuantiBRITE-PE flow cytometry (Example 9); format: cell-based, human
# Excerpt: (§3) Cells were then washed and run on a Fortessa X20 flow cytometer.
# [7] = tested on: CD25 surface protein on KG-1 cells; assay: as above; format: cell-based, human
# Excerpt: as §3
# advanced melanoma = conditions: phase III; compared to the standard of care (temozolomide or dacarbazine); cited from earlier work
compound,measurement,setting,value
"Nc1ncn([C@H]2C[C@H](O)[C@@H](CO)O2)c(=O)n1 [Decitabine, 4-Amino-1-(2-deoxy-β-D-erythro-pentofuranosyl)-1,3,5-triazin-2(1H)-one]",Amount of CD25 on the cells,[1],no difference
"Nc1ccn([C@@H]2O[C@H](CO)C(O)[C@@H]2O)c(=O)n1 (stereo in doubt) [Cytarabine, 4-amino-1-[(2R,3S,4R,5R)-3,4-dihydroxy-5-(hydroxymethyl)oxolan-2-yl] pyrimidin-2-one]",Change in surface CD25 levels (FACS analysis),[2],two-fold increase
same,Change in surface CD25,[3],No increase
same,Effect on CD25 mRNA expression,[4],little effect
same,Increase in CD25 mRNA expression vs untreated control,[5]; after 24 hours incubation,2 fold
same,Increase in CD25 mRNA expression vs untreated control,[5]; after 48 hours incubation,4 fold
same,Increase in CD25 mRNA expression vs untreated control,[5]; after 96 hours incubation,3 fold
same,Mean number of CD25 antibodies bound per cell,[6]; Karpas299 cells treated with 30 nM Cytarabine 24 hours (untreated the same),~60000 antibodies per cell
same,Effect on CD25 surface protein expression,"[6]; Karpas299 cells, 30 nM Cytarabine, 24 hour period",little effect
same,Mean number of CD25 antibodies bound per cell,[7]; KG-1 cells treated with 30 nM Cytarabine 24 hours (untreated ~200),~400 antibodies per cell
same,Levels of CD25 surface expression,"[7]; KG-1 cells, 30 nM Cytarabine, 24 hours",significantly increased
tremelimumab: anti-CTLA4 antibody,Overall survival of patients,advanced melanoma,did not significantly increase the overall survival
